Biological target: T1, P2X purinoceptor 7 (Homo sapiens, UniProt Q99572)
T1 sequence (Q99572 whole entry): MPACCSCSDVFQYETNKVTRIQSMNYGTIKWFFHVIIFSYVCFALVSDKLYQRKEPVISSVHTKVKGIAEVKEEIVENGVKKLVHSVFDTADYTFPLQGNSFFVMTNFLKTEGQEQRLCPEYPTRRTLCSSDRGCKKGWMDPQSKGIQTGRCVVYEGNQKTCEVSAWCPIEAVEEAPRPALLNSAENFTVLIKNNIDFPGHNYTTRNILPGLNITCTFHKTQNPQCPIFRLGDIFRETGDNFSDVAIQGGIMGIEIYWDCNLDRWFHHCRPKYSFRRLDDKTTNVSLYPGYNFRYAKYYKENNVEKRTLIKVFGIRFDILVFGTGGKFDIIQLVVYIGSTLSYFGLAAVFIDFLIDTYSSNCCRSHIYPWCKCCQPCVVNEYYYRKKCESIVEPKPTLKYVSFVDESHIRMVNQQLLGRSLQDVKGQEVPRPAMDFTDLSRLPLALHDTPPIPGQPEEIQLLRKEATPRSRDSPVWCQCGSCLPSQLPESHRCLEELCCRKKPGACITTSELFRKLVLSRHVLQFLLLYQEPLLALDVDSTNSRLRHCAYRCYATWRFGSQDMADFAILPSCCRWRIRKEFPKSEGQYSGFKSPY
Test: Fluorescent Imaging Plate Reader (FLIPR) Assay: Briefly, 293-human or mouse P2X7 stable cells were incubated in sucrose buffer, pH 7.4 [KCl (5 mM), NaH2PO42H2O (9.6 mM), HEPES (25 mM), sucrose (280 mM), glucose (5 mM), CaCl2 (0.5 mM), and probenecid (0.1425 g in 3 mL 1N NaOH was added for 500 mL solution)] in 384-well plates. 93-rat P2X7 stable cells were incubated in HHPB (pH 7.4) [consisting of Hank's BSS (1X); HEPES (pH 7.4) (20 mM) (Sigma); probenecid (0.710 g/5 mL 1N NaOH) (Sigma); and BSA (0.05%) (Roche) which was added after the pH had been adjusted] in 384-well plates. Fluo-4 NW dye mix (Molecular Probes, Inc., Eugene, Oreg., USA) was prepared in buffer (see manufacturer's instructions). Cell plates were removed from the 37° C. incubator, the media discarded and then 30 μL of dye was added to each well. Plates were placed in the 37° C., non-CO2 incubator for 30 minutes and then room temperature for 30 minutes. Two sets of drug plates were prepared: A) Mixtures of compound plus agonist were prepared as follows, in order to determine close response: BzATP: 11 point ½ log, diluted in buffer, starting from 1 mM. Testing compounds: 11 point ½ log, diluted in 2% DMSO buffer starting from 10 μM. B) Agonist only mixture was prepared with BzATP at a single concentration in buffer (concentration determined by dose response). Compound mixtures (A) were added to assay plates containing cells and placed at room temperature for 30 minutes, then BzATP (B) was added. Fluorescence was read using the Tetra FLIPR® (Molecular Devices, Inc., Sunnyvale, Calif., USA) and IC50 values were calculated by standard methods to determine antagonist activity.
Format: cell-based

IC50 [nM]	SMILES
650	COc1ccc(C(CNC(=O)c2cc(C)ccc2Cl)N2CCCCC2)cc1 (stereo not drawn)
21	Cc1ccc(Cl)c(C(=O)NCC(c2ccc(F)cc2)N2CCOCC2)c1 (stereo not drawn)
59	COc1ccc(C(CNC(=O)c2cc(C)ccc2Cl)N2CCOCC2)cc1 (stereo not drawn)

Source: ChEMBL document CHEMBL3886883, “Cyclic amines” (2016)
